In US8927009B2 (AbbVie Inc., priority 2009, dated 2015):
Structures can show the parent of a compound that is named as a salt.

How the values were obtained:
Type in all cases: physicochemical
[1] = Drug solubility in ternary excipient systems; design: key: ✓: vehicle miscible, or drug fully dissolved in vehicle; conditions: 10% salt, 20% free base
From the text: (§1) Solvents evaluated included Labrafil M 1944 CS™, Imwitor 742™, oleic acid, Capmul PG-8™, Capmul PG-12™, Lauroglycol 90™ (propylene glycol monolaurate, available from Gattefossé) and Phosal 53 MCT™. Surfactants evaluated included Tween 80™, Cremophor RH40™, Gelucire 44/14™ (polyoxyethylene glyceryl laurate, available from Gattefossé) and Labrasol™.

[2] = Drug solubility in ternary excipient systems; design: key: ✓: vehicle miscible, or drug fully dissolved in vehicle; x: vehicle immiscible or miscible but turbid, or residual solids present (due to undissolved drug or precipitation); conditions: 10% salt, 20% free base
From the text: as §1

[3] = Solubility in lipid solvents and solvent mixtures in ambient conditions; conditions: listed as bis-HCl salt
Procedure: Solubility of ABT-263 parent (free base, crystalline Form I) and ABT-263 bis-HCl salt was tested in a variety of lipid solvents and solvent mixtures in ambient conditions. Trademarked solvents in this study, unless identified hereinabove, are as follows (substantially equivalent products from other manufacturers can be substituted if available): • Miglyol 810™ of Sasol: caprylic/capric triglycerides; • Capmul MCM™ of Abitec: glyceryl caprylate/caprate; • Captex 300™ of Abitec: caprylic/capric triglycerides; • Labrafil M 2125 CS™ of Gattefossé: polyoxyethylene glyceryl linoleate; • Tween 20™ of Uniqema: polysorbate 20; • Labrasol™ of Gattefossé: polyoxyethylene glyceryl caprylate/caprate; • Cremophor RH40™: polyoxyethyene (40) hydrogenated castor oil. “PE-91” is Phosal 53 MCT™+ethanol, 9:1 by volume. “LOT-343” is Labrafil M 1944 CS™+oleic acid+Tween 80™, 30:40:30 by weight.
In some cases, indicated in Table 4 by an asterisk (*), solubility was initially high but precipitation occurred upon standing.

## CC1(C)CCC(c2ccc(Cl)cc2)=C(CN2CCN(c3ccc(C(=O)NS(=O)(=O)c4ccc(N[C@H](CCN5CCOCC5)CSc5ccccc5)c(S(=O)(=O)C(F)(F)F)c4)cc3)CC2)C1 [ABT-263 bis-HCl]
[1]; Capmul PG-8/Labrafil M 1944 CS/Labrasol (C8LL) 40:40:20 % by weight
  ABT-263 solubility: ✓
[1]; Capmul PG-12/Labrafil M 1944 CS/Tween 80 (C12LT) 30:40:30 % by weight
  ABT-263 solubility: ✓
[1]; Capmul PG-12/Labrafil M 1944 CS/Tween 80 (C12LT) 35:40:25 % by weight
  ABT-263 solubility: ✓
[1]; Capmul PG-12/Labrafil M 1944 CS/Tween 80 (C12LT) 40:30:30 % by weight
  ABT-263 solubility: ✓
[1]; Capmul PG-12/Labrafil M 1944 CS/Tween 80 (C12LT) 45:30:25 % by weight
  ABT-263 solubility: ✓
[1]; Imwitor 742/Labrafil M 1944 CS/Cremophor RH40 (ILC) 40:40:20 % by weight, listed as salt
  ABT-263 solubility: ✓
[1]; Imwitor 742/Labrafil M 1944 CS/Cremophor RH40 (ILC) 50:30:20 % by weight, listed as salt
  ABT-263 solubility: ✓
[1]; Imwitor 742/Labrafil M 1944 CS/Cremophor RH40 (ILC) 50:40:10 % by weight, listed as salt
  ABT-263 solubility: ✓
[1]; Imwitor 742/Labrafil M 1944 CS/Cremophor RH40 (ILC) 60:30:10 % by weight, listed as salt
  ABT-263 solubility: ✓
[1]; Imwitor 742/Labrafil M 1944 CS/Labrasol (ILL) 40:40:20 % by weight, listed as salt
  ABT-263 solubility: ✓
[1]; Imwitor 742/Labrafil M 1944 CS/Labrasol (ILL) 50:30:20 % by weight, listed as salt
  ABT-263 solubility: ✓
[1]; Imwitor 742/Labrafil M 1944 CS/Labrasol (ILL) 50:40:10 % by weight, listed as salt
  ABT-263 solubility: ✓
[1]; Imwitor 742/Labrafil M 1944 CS/Labrasol (ILL) 60:30:10 % by weight, listed as salt
  ABT-263 solubility: ✓
[1]; Labrafil M 1944 CS/Imwitor 742/Tween 80 (LIT) 30:40:30 % by weight, listed as salt
  ABT-263 solubility: ✓
[1]; Labrafil M 1944 CS/Imwitor 742/Tween 80 (LIT) 30:45:25 % by weight, listed as salt
  ABT-263 solubility: ✓
[1]; Labrafil M 1944 CS/Imwitor 742/Tween 80 (LIT) 40:30:30 % by weight, listed as salt
  ABT-263 solubility: ✓
[1]; Labrafil M 1944 CS/Imwitor 742/Tween 80 (LIT) 40:35:25 % by weight, listed as salt
  ABT-263 solubility: ✓
[1]; Labrafil M 1944 CS/oleic acid/Cremophor RH40 (LOC) 30:60:10 % by weight
  ABT-263 solubility: ✓
[1]; Labrafil M 1944 CS/oleic acid/Cremophor RH40 (LOC) 40:50:10 % by weight
  ABT-263 solubility: ✓
[1]; Labrafil M 1944 CS/oleic acid/Tween 80 (LOT) 30:40:30 % by weight
  ABT-263 solubility: ✓
[1]; Labrafil M 1944 CS/oleic acid/Tween 80 (LOT) 30:45:25 % by weight
  ABT-263 solubility: ✓
[1]; Labrafil M 1944 CS/oleic acid/Tween 80 (LOT) 40:30:30 % by weight
  ABT-263 solubility: ✓
[1]; Labrafil M 1944 CS/oleic acid/Tween 80 (LOT) 40:35:25 % by weight
  ABT-263 solubility: ✓
[1]; Lauroglycol 90/Labrafil M 1944 CS/Cremophor RH40 (LLC) 45:30:25 % by weight
  ABT-263 solubility: ✓
[1]; Lauroglycol 90/Labrafil M 1944 CS/Labrasol (LLL) 40:40:20 % by weight
  ABT-263 solubility: ✓
[1]; Lauroglycol 90/Labrafil M 1944 CS/Labrasol (LLL) 50:30:20 % by weight
  ABT-263 solubility: ✓
[1]; Lauroglycol 90/Labrafil M 1944 CS/Labrasol (LLL) 50:40:10 % by weight, listed as salt
  ABT-263 solubility: ✓
[1]; Lauroglycol 90/Labrafil M 1944 CS/Labrasol (LLL) 60:30:10 % by weight, listed as salt
  ABT-263 solubility: ✓
[1]; oleic acid/Labrafil M 1944 CS/Labrasol (OLL) 40:40:20 % by weight
  ABT-263 solubility: ✓
[1]; oleic acid/Labrafil M 1944 CS/Labrasol (OLL) 50:30:20 % by weight
  ABT-263 solubility: ✓
[1]; oleic acid/Labrafil M 1944 CS/Labrasol (OLL) 50:40:10 % by weight
  ABT-263 solubility: ✓
[1]; oleic acid/Labrafil M 1944 CS/Labrasol (OLL) 60:30:10 % by weight
  ABT-263 solubility: ✓
[2]; Capmul PG-8/Labrafil M 1944 CS/Cremophor RH40 (C8LC) 40:40:20 % by weight
  ABT-263 solubility: x
[2]; Capmul PG-8/Labrafil M 1944 CS/Cremophor RH40 (C8LC) 50:30:20 % by weight
  ABT-263 solubility: x
[2]; Capmul PG-8/Labrafil M 1944 CS/Cremophor RH40 (C8LC) 50:40:10 % by weight
  ABT-263 solubility: x
[2]; Capmul PG-8/Labrafil M 1944 CS/Cremophor RH40 (C8LC) 60:30:10 % by weight
  ABT-263 solubility: x
[2]; Capmul PG-8/Labrafil M 1944 CS/Labrasol (C8LL) 50:30:20 % by weight
  ABT-263 solubility: x
[2]; Capmul PG-8/Labrafil M 1944 CS/Labrasol (C8LL) 50:40:10 % by weight
  ABT-263 solubility: x
[2]; Capmul PG-8/Labrafil M 1944 CS/Labrasol (C8LL) 60:30:10 % by weight
  ABT-263 solubility: x
[2]; Capmul PG-8/Labrafil M 1944 CS/Tween 80 (C8LT) 30:40:30 % by weight
  ABT-263 solubility: x
[2]; Capmul PG-8/Labrafil M 1944 CS/Tween 80 (C8LT) 35:40:25 % by weight
  ABT-263 solubility: x
[2]; Capmul PG-8/Labrafil M 1944 CS/Tween 80 (C8LT) 40:30:30 % by weight
  ABT-263 solubility: x
[2]; Capmul PG-8/Labrafil M 1944 CS/Tween 80 (C8LT) 45:30:25 % by weight
  ABT-263 solubility: x
[3]; in Capmul PG-8, ambient conditions
  Solubility: <43 mg/g
[3]; in Capmul PG-12, ambient conditions
  Solubility: <39 mg/g
[3]; in Captex 300, ambient conditions
  Solubility: <52 mg/g
[3]; in Labrafil M 1944 CS, ambient conditions
  Solubility: <45 mg/g
[3]; in Labrafil M 2125 CS, ambient conditions
  Solubility: <44 mg/g
[3]; in PE-91 (Phosal 53 MCT + ethanol 9:1 by volume), ambient conditions
  Solubility: 89 mg/g
[3]; in poloxamer 124, ambient conditions
  Solubility: <41 mg/g
[3]; in sesame oil, ambient conditions
  Solubility: <80 mg/g
